# Measured values taken from US6362192B1, “2-(Pyrazolyloxy) -pyridin-3-ylacetic acid derivatives, agents containing the same and use thereof against noxious fungi and animal parasites” (BASF Aktiengesellschaft, priority 1998, dated 2002).
# Key:
# Assay type in all cases: in vivo
# [1] = tested on: Erysiphe graminis forma specialis tritici; experiment: Protective activity against Erysiphe graminis var. tritici (powdery mildew of wheat); conditions: 16 ppm, sprayed 24 h before inoculation, seedlings cv. Frühgold, assessed after 7 days; untreated control 80%
# Procedure: 1) Protective Activity Against Erysiphe graminis var. tritici (Powdery Mildew of Wheat) Leaves of potted […] seedlings cv. “Frühgold” were sprayed to runoff point with an aqueous active compound preparation which had been prepared from a stock solution comprising 10% of active compound, 63% of cyclohexanone and 27% of emulsifier, and, 24 hours after the spray coating had dried on, dusted with spores of powdery mildew of wheat (Erysiphe graminis forma specialis tritici). The test plants were subsequently placed in a greenhouse at from 20 to 22° C. and a relative atmospheric humidity of 75 to 80%. After 7 days, the extent of mildew development was determined visually as % infection of the total leaf area.
# [2] = tested on: pyricularia oryzae; conditions: 16 ppm, rice seedlings cv. Tai-Nong 67, inoculated the next day, assessed after 6 days; untreated control 85%
# [3] = tested on: Plasmopara viticola; experiment: Long-term activity against Plasmopara viticola on grapevines; conditions: 16 ppm, grapevines cv. Müller-Thurgau, inoculated 7 days after spraying; untreated control 75%
# Source text: 2) Long-term Activity Against Plasmopara viticola Leaves of potted grapevines cv. “Müller-Thurgau” were sprayed to runoff point with an aqueous active compound preparation which had been prepared from a stock solution comprising 10% of active compound, 63% of cyclohexanone and 27% of emulsifier. To assess the persistency of the substances, the plants were kept for 7 days in a greenhouse after the spray coating had dried on. Only then were the leaves inoculated with an aqueous zoospore suspension of Plasmopara viticola. The grapevines were then initially kept in a water vapor-saturated chamber at 24° C. for 48 hours and then in a greenhouse at 20-30° C. for 5 days. After this period of time, the plants were once more kept in a humid chamber for 16 hours to promote sporangiophore eruption. The extent of the infection on the undersides of the leaves was then assessed visually.
smiles,measurement,setting,value
"CO/C=C(/C(=O)OC)c1cccnc1Oc1ccn(-c2ccc(Cl)cc2)n1 [I.3, Methyl methoxy-[2-(1-(4-chlorophenyl)-3-pyrazolyloxy)pyridin-3-yl]acrylate]",infection (mildew development as % infection of the total leaf area),[1],5%
same,infestation on the leaves,[2],15%
same,infection on the undersides of the leaves,[3],no infestation
